Columns and labels:
[1] = target: T1, Gamma-aminobutyric acid receptor subunit alpha-2 (Homo sapiens) (UniProt P47869); experiment: Binding affinity to GABA-A alpha2 (unknown origin) assessed as reduction in DMCM induced current relative to control
T1 sequence (whole entry): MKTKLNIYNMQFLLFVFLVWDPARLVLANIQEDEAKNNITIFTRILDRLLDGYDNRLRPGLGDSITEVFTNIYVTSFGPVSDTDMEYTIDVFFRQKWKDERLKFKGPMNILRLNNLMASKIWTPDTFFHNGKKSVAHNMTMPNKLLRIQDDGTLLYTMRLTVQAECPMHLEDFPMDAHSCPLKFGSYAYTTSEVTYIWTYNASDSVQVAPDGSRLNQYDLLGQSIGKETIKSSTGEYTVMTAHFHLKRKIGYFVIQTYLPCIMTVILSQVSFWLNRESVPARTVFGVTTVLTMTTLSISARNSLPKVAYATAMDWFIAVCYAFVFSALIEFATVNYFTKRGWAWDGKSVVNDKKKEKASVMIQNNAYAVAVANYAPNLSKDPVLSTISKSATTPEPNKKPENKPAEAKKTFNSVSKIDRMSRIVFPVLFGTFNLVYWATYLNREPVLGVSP

[2] = target: T2, Gamma-aminobutyric acid receptor subunit alpha-2 (Homo sapiens, UniProt P47869); experiment: Binding affinity to GABA-A alpha2 (unknown origin)
T2 sequence (P47869 whole entry): T1 sequence (whole entry)

[3] = target: T3, Gamma-aminobutyric acid receptor subunit alpha-1 (Homo sapiens) (UniProt P14867); experiment: Negative allosteric modulation of GABA-A alpha1 (unknown origin) assessed as reduction in DMCM induced current relative to control
T3 sequence (whole entry): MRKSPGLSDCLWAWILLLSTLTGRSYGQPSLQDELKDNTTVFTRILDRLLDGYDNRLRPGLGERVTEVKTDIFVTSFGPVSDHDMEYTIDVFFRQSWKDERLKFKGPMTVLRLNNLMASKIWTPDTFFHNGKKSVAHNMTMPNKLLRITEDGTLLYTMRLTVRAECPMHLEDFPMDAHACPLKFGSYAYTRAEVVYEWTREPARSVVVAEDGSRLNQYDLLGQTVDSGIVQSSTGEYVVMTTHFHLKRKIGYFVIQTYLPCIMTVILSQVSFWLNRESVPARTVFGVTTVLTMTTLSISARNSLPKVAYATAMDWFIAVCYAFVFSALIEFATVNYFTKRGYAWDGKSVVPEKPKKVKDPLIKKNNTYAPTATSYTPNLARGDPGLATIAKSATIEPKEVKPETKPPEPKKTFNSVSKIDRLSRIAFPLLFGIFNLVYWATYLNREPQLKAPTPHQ

[4] = target: T4, Gamma-aminobutyric acid receptor subunit alpha-1 (Homo sapiens, UniProt P14867); experiment: Binding affinity to GABA-A alpha1 (unknown origin)
T4 sequence (P14867 whole entry): T3 sequence (whole entry)

[5] = target: T5, Gamma-aminobutyric acid receptor subunit alpha-3 (Homo sapiens, UniProt P34903); experiment: Binding affinity to GABA-A alpha3 (unknown origin)
T5 sequence (P34903 whole entry): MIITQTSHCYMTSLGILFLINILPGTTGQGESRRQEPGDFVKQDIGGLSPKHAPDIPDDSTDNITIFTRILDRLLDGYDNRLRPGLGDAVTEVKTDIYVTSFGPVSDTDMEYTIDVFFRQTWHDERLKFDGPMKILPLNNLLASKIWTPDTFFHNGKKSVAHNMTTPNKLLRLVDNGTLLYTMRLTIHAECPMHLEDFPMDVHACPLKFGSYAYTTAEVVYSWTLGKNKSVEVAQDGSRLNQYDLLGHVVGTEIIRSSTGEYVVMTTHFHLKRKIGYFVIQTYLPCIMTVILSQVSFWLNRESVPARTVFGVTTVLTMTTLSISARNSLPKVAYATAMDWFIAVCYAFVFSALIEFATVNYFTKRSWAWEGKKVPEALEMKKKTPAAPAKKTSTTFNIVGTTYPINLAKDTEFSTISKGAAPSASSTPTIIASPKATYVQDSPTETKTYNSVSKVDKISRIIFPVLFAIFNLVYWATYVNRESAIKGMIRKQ

[6] = target: T6, Gamma-aminobutyric acid receptor subunit alpha-3 (Homo sapiens) (UniProt P34903); experiment: Binding affinity to GABA-A alpha3 (unknown origin) assessed as reduction in DMCM induced current relative to control
T6 sequence (whole entry): T5 sequence (P34903 whole entry)

[7] = tested on: Rattus norvegicus; experiment: In vivo receptor occupancy at GABAA receptor in po dosed Crl:CD Sprague-Dawley rat assessed as brain concentration causing 50% reduction in [3H]-Ro15-4513 receptor labeling after 1 hr; assay type: functional
[8] = target: T7, Gamma-aminobutyric acid receptor subunit alpha-5 (Homo sapiens, UniProt P31644); experiment: Binding affinity to GABA-A alpha5 (unknown origin)
T7 sequence (P31644 whole entry): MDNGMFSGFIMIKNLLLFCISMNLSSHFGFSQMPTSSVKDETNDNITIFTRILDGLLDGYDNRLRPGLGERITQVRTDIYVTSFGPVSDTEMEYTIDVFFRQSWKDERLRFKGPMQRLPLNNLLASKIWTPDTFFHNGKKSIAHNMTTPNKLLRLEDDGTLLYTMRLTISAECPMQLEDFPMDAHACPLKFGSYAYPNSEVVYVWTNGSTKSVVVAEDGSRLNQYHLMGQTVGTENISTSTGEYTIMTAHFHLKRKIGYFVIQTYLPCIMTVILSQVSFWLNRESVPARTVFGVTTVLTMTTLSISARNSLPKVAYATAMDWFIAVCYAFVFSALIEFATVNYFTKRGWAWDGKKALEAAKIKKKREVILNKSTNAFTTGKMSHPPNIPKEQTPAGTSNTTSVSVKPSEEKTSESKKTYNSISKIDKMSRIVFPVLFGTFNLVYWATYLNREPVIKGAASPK

[9] = tested on: Rattus norvegicus; experiment: In vivo receptor occupancy at GABAA receptor in po dosed rat assessed as brain concentration causing 50% reduction in [3H]-flumazenil receptor labeling; assay type: functional
[10] = target: T6, Gamma-aminobutyric acid receptor subunit alpha-3 (Homo sapiens); experiment: Binding affinity to GABA-A alpha3 (unknown origin) assessed as reduction in DMCM induced current relative to DMCM
[11] = target: T1, Gamma-aminobutyric acid receptor subunit alpha-2 (Homo sapiens); experiment: Binding affinity to GABA-A alpha2 (unknown origin) assessed as reduction in DMCM induced current relative to DMCM
[12] = tested on: Homo sapiens; experiment: In vivo receptor occupancy at GABAA receptor in po dosed human assessed as plasma concentration causing 50% reduction in [11C]-flumazenil receptor labeling; assay type: functional
[13] = target: T8, Gamma-aminobutyric acid receptor subunit alpha-5 (Homo sapiens) (UniProt P31644); experiment: Binding affinity to GABA-A alpha5 (unknown origin) assessed as reduction in DMCM induced current relative to DMCM
T8 sequence (whole entry): T7 sequence (P31644 whole entry)

[14] = target: T3, Gamma-aminobutyric acid receptor subunit alpha-1 (Homo sapiens); experiment: Negative allosteric modulation of GABA-A alpha1 (unknown origin) assessed as reduction in DMCM induced current relative to DMCM
[15] = tested on: Homo sapiens; experiment: In vivo receptor occupancy at GABAA receptor in human assessed as brain concentration causing reduction in [11C]-flumazenil receptor labeling at 2 mg after 1 hr by PET relative to control; assay type: functional
[16] = tested on: Mus musculus; experiment: In vivo receptor occupancy at GABAA receptor in po dosed mouse assessed as brain concentration causing 50% reduction in [3H]-flumazenil receptor labeling; assay type: functional

Row | Efficacy [1] [%] | Ki [2] [nM] | Efficacy [3] [%] | Ki [4] [nM] | Ki [5] [nM] | Efficacy [6] [%] | Ki [8] [nM] | Efficacy [10] | Efficacy [11] | Efficacy [13] | Efficacy [14] | Compound | Occ50 [7] [mg/kg] | Occ50 [9] [mg/kg] | Occ50 [12] [ng/mL] | Occ [15] [%] | Occ50 [16] [mg/kg]
1 | 0 | 32 | 0 | 140 | 24 | 0 |  |  |  |  |  | Cc1c(F)c(Nc2ccc(-c3cn(C)cn3)cn2)cc2c1ncn2CC1CC1 | 1.9 |  |  |  | 
2 |  | 0.58 |  | 0.88 | 0.61 |  | 0.66 | -0.11 | 0.1 | -0.7 | -0.25 | Cc1cc(-c2nnc3c4ccccc4c(OCc4cn(C)nn4)nn23)no1 |  | 0.12 | 10 | 50 | 0.25
